Values quoted from earlier work in patent US20040048261A1, “Invertebrate choline transporter nucleic acids, polypeptides and uses thereof” (priority 2002, published 2004).

Legend:
[1] = target: low-affinity, sodium-independent system for choline uptake; conditions: synaptosome studies, high choline concentrations, read-out: inhibition constant (Ki)
[2] = target: high-affinity, sodium-dependent system for choline uptake; conditions: synaptosome studies, low choline concentrations

**Q.** Which results are given for `C[N+]1(C)CCOC(O)(c2ccc(-c3ccc(C4(O)C[N+](C)(C)CCO4)cc3)cc2)C1` (centres unmarked) [HC-3, hemicholinium-3]?
**A.** Ki [1]: ~50 µM; Ki [2]: 0.01 to 0.1 µM
